From the NIST ThermoML archive (doi:10.1021/je3013205)

Assay: xn = mol fraction of the nth substance listed
Conditions: 101 kPa, Liquid, Vibrating tube method

OCCO [1,2-ethanediol] + NCCOCCO
x1 = 1
Conditions	mass density [kg/m3]
283.15 K	1119.29
293.15 K	1112.37
303.15 K	1105.39
313.15 K	1098.34
323.15 K	1091.21
333.15 K	1083.99
343.15 K	1076.65

NCCO [2-aminoethan-1-ol] + CO
mass density [kg/m3]
Conditions	x2 = 0	x2 = 0.0999	x2 = 0.2	x2 = 0.3001	x2 = 0.4	x2 = 0.5	x2 = 0.6001	x2 = 0.7026	x2 = 0.7998	x2 = 0.8999
283.15 K	1024.11	1012.96	1000.24	985.644	969.73	951.484	930.19	904.556	875.763	841.316
293.15 K	1016.23	1005	992.199	977.53	961.548	943.204	921.795	895.978	867.002	832.282
303.15 K	1008.32	997.005	984.108	969.37	953.296	934.844	913.321	887.345	858.177	823.2
313.15 K	1000.37	988.961	975.96	961.142	944.973	926.41	904.767	878.633	849.26	814.016
323.15 K	992.364	980.886	967.788	952.855	936.722	917.891	896.116	869.812	840.244	804.724
333.15 K	984.301	972.713	959.607	944.613	928.096	909.268	887.352	860.859	831.072	795.281

CO [methanol] + NCCOCCO
x1 = 1
Conditions	mass density [kg/m3]
283.15 K	801.254
293.15 K	791.866
303.15 K	782.43
313.15 K	772.902
323.15 K	763.244
333.15 K	753.389

NCCO [2-aminoethan-1-ol] + CC(C)O
mass density [kg/m3]
Conditions	x2 = 0	x2 = 0.1001	x2 = 0.1999	x2 = 0.3002	x2 = 0.4001	x2 = 0.5001	x2 = 0.5999	x2 = 0.7	x2 = 0.8002	x2 = 0.8999
283.15 K	1024.11	999.024	974.32	949.806	925.587	902.006	879.054	856.17	834.572	813.792
293.15 K	1016.23	990.993	966.334	941.791	917.446	893.95	870.943	848.018	826.391	805.582
303.15 K	1008.32	982.903	958.311	933.723	909.315	885.794	862.727	839.735	818.066	797.19
313.15 K	1000.37	974.928	950.234	925.597	901.039	877.533	854.388	831.308	809.555	788.57
323.15 K	992.364	966.92	942.073	917.361	892.673	869.138	845.897	822.707	800.81	779.665
333.15 K	984.301	958.72	933.821	909.018	884.471	860.597	837.216	813.881	791.784	770.393
343.15 K	976.153	950.596	925.458	900.544	875.887	851.867	828.323	804.773	782.457	760.722

NCCOCCO [2-(2-aminoethoxy)ethanol] + CC(C)O
mass density [kg/m3]
Conditions	x2 = 0	x2 = 0.1002	x2 = 0.2002	x2 = 0.2999	x2 = 0.3998	x2 = 0.5001	x2 = 0.6	x2 = 0.7001	x2 = 0.7999	x2 = 0.9
283.15 K	1063.9	1045.45	1024.83	1002.4	978.848	953.526	926.557	896.824	864.765	830.522
293.15 K	1055.86	1037.41	1016.77	994.333	970.775	945.419	918.428	888.658	856.572	822.302
303.15 K	1047.8	1029.32	1008.68	986.21	962.634	937.23	910.206	880.385	848.24	813.893
313.15 K	1039.73	1021.21	1000.54	978.03	954.426	928.957	901.852	871.966	839.727	805.266
323.15 K	1031.63	1013.07	992.342	969.77	946.127	920.579	893.378	863.375	831.011	796.354
333.15 K	1023.46	1004.87	984.07	961.425	937.625	912.056	884.74	854.584	822.035	787.116
343.15 K	1015.24	996.578	975.712	952.983	929.152	903.381	875.931	845.569	812.769	777.485

CC(C)O [propan-2-ol] + NCCOCCO
x1 = 1
Conditions	mass density [kg/m3]
283.15 K	794.005
293.15 K	785.764
303.15 K	777.284
313.15 K	768.476
323.15 K	759.309
333.15 K	749.679
343.15 K	739.528

CC(C)O [propan-2-ol] + NCCO
x1 = 1
Conditions	mass density [kg/m3]
283.15 K	794.005
293.15 K	785.764
303.15 K	777.284
313.15 K	768.476
323.15 K	759.309
333.15 K	749.679
343.15 K	739.528

NCCOCCO [2-(2-aminoethoxy)ethanol] + CO
mass density [kg/m3]
Conditions	x2 = 0	x2 = 0.0999	x2 = 0.1999	x2 = 0.3001	x2 = 0.4	x2 = 0.5	x2 = 0.6002	x2 = 0.6999	x2 = 0.8	x2 = 0.9001
283.15 K	1063.9	1055.89	1046	1034.44	1019.81	1002.23	980.617	953.558	916.98	868.243
293.15 K	1055.86	1047.82	1037.87	1026.25	1011.56	993.898	972.194	945.032	908.292	859.298
303.15 K	1047.8	1039.72	1029.71	1018.04	1003.27	985.526	963.722	936.443	899.545	850.287
313.15 K	1039.73	1031.59	1021.52	1009.78	995.032	977.101	955.185	927.795	890.727	841.205
323.15 K	1031.63	1023.41	1013.29	1001.48	986.54	968.618	946.586	919.061	881.797	832.01
333.15 K	1023.46	1015.19	1004.99	993.102	978.075	960.052	937.892	910.228	872.764	822.672

OCCO [1,2-ethanediol] + NCCO
x1 = 1
Conditions	mass density [kg/m3]
283.15 K	1119.29
293.15 K	1112.37
303.15 K	1105.39
313.15 K	1098.34
323.15 K	1091.21
333.15 K	1083.99
343.15 K	1076.65
